{"source": "patent US12390482B2", "about": "“Neurolytic agents and methods of using and identifying same” (priority 2021, dated 2025)", "key": {"[1]": {"system": "WT mouse embryonic dorsal root ganglion (DRG) neurons", "test": "Axon degeneration in cultured WT DRG neurons", "type": "cell-based", "settings": "for activity as SARM1 activator (tested compounds): axon degeneration and SARM1 activation assays", "protocol": "(§1) DRG neuron culture: Mouse DRG culture was as described previously. Mouse DRGs were dissected at embryonic day 13.5. Approximately 50 ganglia were collected from each embryo and dissociated in 0.05% Trypsin containing 0.02% EDTA (Gibco) at 37° C. for 20 min. The DRG neurons were washed 3 times with DRG culture medium after incubation with Trypsin. Cells were seeded as spot cultures in 96-tissue culture plates (Corning) coated with 0.1 mg/ml poly-D-lysine and 0.1 mg/ml laminin. They were cultured in Neurobasal (Gibco) containing 2% B27 (Invitrogen), 100 ng/ml 2.5S NGF (Harlan Bioproducts), and 1 μM 5-fluoro-2′-deoxyuridine/1 μM uridine. The culture medium was exchanged with fresh DRG culture medium every 2-3 days. Lentiviruses were added 3 days after seeding (DIV3).\n[…] After axon transection, bright-field images of distal axons were taken using the Operetta automated imaging system (PerkinElmer). Axon degeneration indexes were calculated from these bright-field images using ImageJ (NIH). The axon degeneration index was calculated as the ratio of fragmented axon areas as previously described. Indexes were calculated as the average of six fields per well."}, "Sarm1 KO DRG neurons": {"system": "Sarm1 KO DRG neurons", "test": "Axon degeneration and neuronal death in cultured Sarm1 KO DRG neurons", "type": "cell-based, mouse", "protocol": "as §1\nQuantification of axon degeneration: After culture for 7 days, axotomy was performed by cutting DRG axons manually with a razor blade. After axon transection, bright-field images of distal axons were taken using the Operetta automated imaging system (PerkinElmer). Axon degeneration indexes were calculated from these bright-field images using ImageJ (NIH). The axon degeneration index was calculated as the ratio of fragmented axon areas as previously described. Indexes were calculated as the average of six fields per well."}, "SARM1": {"target": "T1, SARM1 (Homo sapiens, UniProt Q6SZW1)", "T1 construct": "StrepTag (N); made in house; host or cells: HEK 293T cells stably expressing NRK1", "T1 sequence (Q6SZW1 28-724)": "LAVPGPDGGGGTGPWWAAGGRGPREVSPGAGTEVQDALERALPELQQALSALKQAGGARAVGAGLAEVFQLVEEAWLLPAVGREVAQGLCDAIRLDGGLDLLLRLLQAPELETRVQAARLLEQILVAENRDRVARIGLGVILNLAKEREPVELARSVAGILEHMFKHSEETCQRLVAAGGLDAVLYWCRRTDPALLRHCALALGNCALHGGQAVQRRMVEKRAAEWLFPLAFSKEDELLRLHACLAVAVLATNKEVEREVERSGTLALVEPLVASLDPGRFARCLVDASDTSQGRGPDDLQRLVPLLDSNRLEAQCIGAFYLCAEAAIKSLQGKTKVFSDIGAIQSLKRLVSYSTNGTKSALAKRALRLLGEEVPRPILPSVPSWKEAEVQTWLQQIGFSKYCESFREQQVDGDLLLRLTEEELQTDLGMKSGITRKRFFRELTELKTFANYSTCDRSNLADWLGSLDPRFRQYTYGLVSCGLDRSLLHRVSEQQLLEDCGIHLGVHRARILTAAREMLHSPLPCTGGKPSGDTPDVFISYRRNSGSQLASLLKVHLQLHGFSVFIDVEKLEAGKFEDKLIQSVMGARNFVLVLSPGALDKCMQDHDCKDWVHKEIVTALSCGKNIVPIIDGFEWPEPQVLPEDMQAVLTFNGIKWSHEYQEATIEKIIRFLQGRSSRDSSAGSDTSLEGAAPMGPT", "test": "SARM1 activation assay by PC6 fluorescence", "type": "biochemical", "protocol": "SARM1 protein purification from mammalian cells: A HEK 293T cell line stably expressing NRK1 was used to produce SARM1 protein as previously described. In short, plasmid containing N-terminal StrepTag-SARM1 was transfected into NRK1-HEK 293T cells using X-tremeGENE reagent (Millipore Sigma). After 2 days, the cells were harvested and re-suspended with binding buffer (100 mM Tris-HCL pH 8, 150 mM sodium chloride, 0.01% Tween-20 with EDTA-free protease inhibitors (Pierce)). After sonication, cell debris was removed by centrifugation at 15,000×g for 10 minutes. Soluble lysates were then mixed with StrepTactin Megbeads (Cube Biotech) equilibrated with the same binding buffer. After incubation at 4° C. for 60 minutes, beads were washed with washing buffer (25 mM HEPES, pH 7.5 and 150 mM NaCl with EDTA-free protease inhibitors). […]\nSARM1 activation assay by PC6 fluorescence: Modified from previous paper, typically, in a mixture of 50 μl, ˜200 ng of SARM1(on-beads) was mixed with 50 μM PC6, 50 μM NAD^+ and 0 to 100 μM of purified 3APMN. The reaction was carried out in a Bio Tek's Cytation 5 plate reader at 25° C. Fluorescence signal, which corresponds to PAD6 formation, was recorded with 405 nm excitation and 520 nm emission wavelengths every 2 minutes. The production rate of PAD6 was calculated based on the fluorescence changes within the first 30 minutes of reaction."}, "WT DRG neurons": {"system": "WT DRG neurons", "test": "Metabolite measurement by LC-MS/MS in WT DRG neurons", "type": "cell-based, mouse", "settings": "neurons pre-treated with FK866 prior to 3-AP addition", "protocol": "as §1\nMetabolite measurement using LC-MS/MS: Lyophilized samples were reconstituted with 50 μl of 5 mM ammonium formate and centrifuged at 12,000 g for 10 min. Cleared supernatants were transferred to sample vials. Serial dilutions of standards for each metabolite in 5 mM ammonium formate were used for calibration. HPLC-mass spectrometry analysis was performed on an Agilent 1290 Infinity II liquid chromatography system (Agilent Technologies, Santa Clara, CA) with a flexible pump, multisampler, sample cooler and an MCT containing an Atlantis T3 column (2.1×150 mm, 3 μm) and VanGuard guard cartridge (2.1 mm×5 mm, 3 μm) (Waters, Milford, MA), coupled to an Agilent 6470 Triple Quad mass spectrometer (Agilent Technologies, Santa Clara, CA). The mobile phase (0.15 ml/min) was 5 mM ammonium formate in water (A) and 100% methanol (B). The column was equilibrated with 0% B, maintained after injection for 2 min, then a linear gradient to 20% B applied over 4 min. The column was then ramped to 50% B over 2 min, and held at 50% for 2 min, then reverted back to 0% B over the next 5 min and allowed to re-equilibrate at 0% B for 9 min. The total run time was 24 min per sample. […] Raw data were acquired and quantified using MassHunter Workstation software version B.08.00 for 6400 Series Triple Quadrupole (Agilent Technologies, Santa Clara, CA)."}, "sensory neurons": {"system": "sensory neurons", "test": "Vacor-induced degeneration of sensory neurons", "type": "cell-based"}}}
{"smiles": "CC(=O)c1ccccn1", "note": "[2-acetylpyridine]", "values": [{"measurement": "activity as SARM1 activator (tested compounds)", "setting": "[1]", "value": "did not work"}]}
{"smiles": "Nc1ccccn1", "note": "[2-aminopyridine]", "values": [{"measurement": "axon degeneration", "setting": "Sarm1 KO DRG neurons", "value": "not in Sarm1 KO neurons"}, {"measurement": "axon degeneration", "setting": "[1]; WT neurons", "value": "causes axon degeneration"}]}
{"smiles": "CC(=O)c1ccc[n+]([C@@H]2O[C@H](COP(=O)([O-])O)[C@@H](O)[C@H]2O)c1", "note": "[3-APMN, 3-acetylpyridine mononucleotide]", "values": [{"measurement": "EC50", "setting": "SARM1", "value": "~44", "unit": "µM"}]}
{"smiles": "Nc1cccnc1", "note": "[3-aminopyridine]", "values": [{"measurement": "activity as SARM1 activator (tested compounds)", "setting": "[1]", "value": "did not work"}]}
{"smiles": "CC(=O)c1ccncc1", "note": "[4-acetylpyridine]", "values": [{"measurement": "activity as SARM1 activator (tested compounds)", "setting": "[1]", "value": "did not work"}]}
{"smiles": "Nc1ccncc1", "note": "[4-aminopyridine]", "values": [{"measurement": "activity as SARM1 activator (tested compounds)", "setting": "[1]", "value": "did not work"}]}
{"smiles": "O=C(/C=C/c1cccnc1)NCCCCC1CCN(C(=O)c2ccccc2)CC1", "note": "[FK866, reference compound]", "values": [{"measurement": "3-APMN, 3-APAD and cADPR levels in 3-AP treated neurons", "setting": "WT DRG neurons", "value": "3-APMN and 3-APAD remain at baseline, and cADPR levels do not increase"}, {"measurement": "effect on neurotoxic actions of 3-AP", "setting": "[1]; FK866 25, 50 or 100 nM overnight, then 3-AP 300 μM", "value": "blocks the neurotoxic actions of 3-AP"}]}
{"smiles": "NC(=O)c1cccnc1", "note": "[Nam, nicotinamide]", "values": [{"measurement": "effect of pretreatment on 3-AP-induced axon degeneration", "setting": "[1]; Nam 0, 50, 100 or 200 μM overnight, then 3-AP 500 μM", "value": "reduces 3-AP-induced axon degeneration in a dose-dependent manner"}]}
{"smiles": "O=C(NCc1cccnc1)Nc1ccc([N+](=O)[O-])cc1", "note": "[Vacor, N-(4-Nitrophenyl)-N′-[(pyridin-3-yl)methyl]urea]", "values": [{"measurement": "SARM1 dependence of neuron degeneration", "setting": "sensory neurons; FIG. 6", "value": "SARM1-dependent"}, {"measurement": "effect of local application to neurites", "setting": "sensory neurons; local application to neurites", "value": "causes distal neurite degeneration without harming neuron cell bodies"}]}
